Entries after “also recorded” stand apart in the source; their conditions may differ. Like-named read-outs stand apart in the source and are kept apart here.
Legend:
[1] = test system: EGFP expression in MCF7 cells; assay: Western blot analysis of EGFP expression; type: cell-based; conditions: 7.5 μM, 5 days
Method: (§1) Cell culture and drug treatment. […] 5-Aza and procainamide were purchased from Sigma-Aldrich. […] Control cells received DMSO vehicle.
Western blotting. Equal amounts of protein in cell lysates were separated in 10% SDS polyacrylamide gels and then transblotted to nitrocellulose membranes. After blocking with non-fat milk, the membrane was washed and incubated with antibodies against GFP (Abeam) or (β-actin (Sigma-Aldrich). The membrane was washed, and then incubated with anti-rabbit immunoglobulin G-horseradish peroxidase. After final wash, the proteins were visualized by enhanced chemiluminescence. Immunoblotting data were analyzed by NIH Image.
In another set of experiment, cells were treated with 7.5 μM of candidate drugs for 5 days, then the cell lysates were harvested and subjected to Western blot. […] The inconsistence between the Western blot result versus the ELISA/images is not immediately clear. Results obtained from ELISA and Western blot confirmed that IM25 is an effective demethylation agent in inhibiting EGFP expression.

GSTp1 = assay: Methylation-specific PCR (MSP) of GSTp1; type: cell-based; conditions: MCF7 cells, 7.5 or 30 μM, 5 days of treatment
[2] = test system: Trip10 promoter methylation (EGFP expression) in MCF7 cells; conditions: for inhibition of EGFP expression (DNA demethylation) in library screening: each compound at 7.5 μM, MCF7 reporter cells; for EGFP expression levels relative to DMSO control: transfected MCF7 cells, different concentrations, 5-day treatment, fluorescence microscopy
Trip10 promoter = assay: Methylation-specific PCR (MSP) of Trip10; type: cell-based; conditions: MCF7 cells, 7.5 or 30 μM, 5 days of treatment
Method: as §1
Bisulfite conversion. Genomic DNA (0.5 μg) was bisulfite-converted by the EZ DNA Methylation Kit (Zymo) by following the manufacturer's instructions.
qMSP. Bisulfite converted DNAs were PCR-amplified by using appropriate PCR primers. Universal methylated DNAs (Millipore) were used as positive control. Col2A1 was used as a loading control and to amplify the serial diluted (1/10, 1/100 and 1/1000) bisulfite-converted universal methylated DNAs to generate the standard curve for quantization in real time PCR machine (Bio-Rad, iQ5). The methylation percentage was calculated as [(Intensity of Amplifications by Trip10 MSP primer set)×100]/(Intensity of Amplifications by Col2A1 MSP primer set) (%). The qMSP was performed in a 25 μL, of reaction mixture containing 4 μL of template (bisulfate treated DNA), 2 μL of primer pair (2.5 μM), 12.5 μL of 2× reaction buffer (SYBR Green real time PCR Master Mix, Toyobo), and 6.5 μL of H2O.

cancer cell growth = conditions: Lee et al., J. Biol. Chem. 280 (2005); cited from earlier work
MCF7 cells [3] = assay: MTT cell viability assay; conditions: 5-day treatment, dose range
Method: (§2) MCF7 breast cancer cells, obtained from American Type Culture Collection, were grown in Minimal Essential Medium (MEM; Invitrogen), supplemented with 10% FBS, 2 mM L-glutamine, and 100 μg/ml penicillin/streptomycin. Cells were cultured at 37° C. in a humidified incubator containing 5% CO2. Medium changes were performed twice weekly and cell passages were performed at 90% confluence. To maintain the two-component constructs in MCF7 cells, 200 μg/mL of hygromycin B (Invitrogen) and 500 μg/mL of Geneticin (G418, Calbiochem) were included in culture medium. 5-Aza and procainamide were purchased from Sigma-Aldrich. Compounds being tested were dissolved in DMSO as stock solutions, and added to culture medium with final DMSO concentrations of 0.3% and 1.2% (v/v) for 7.5 μM and 30 μM of testing drugs, respectively. Control cells received DMSO vehicle. During the 5-day treatment period, medium was changed on the third day of treatment along with the addition of 17β-estradiol (E2, 10 ng/ml).
(§3) Cell viability was assessed using MTT [3-(4,5-dimethylthiazol-2-yl)-2,5-diphenyl-2H-tetrazolium bromide, Sigma-Aldrich) in six replicates. MCF7 cells were seeded at 4,000 cells per well in 96-well plates, and treated with test agents at different concentrations. […] Reduced MTT was solubilized in 200 μl/well of DMSO for determination of absorbance of 595 nm using a microplate reader.

[4] = test system: genome-wide methylation in MCF7 cells; assay: Differential Methylation Hybridization (DMH) array, genome-wide methylation; type: cell-based
Method: Differential Methylation Hybridization (DMH) Array. DMH was performed according to a reported procedure. Yan et al., J Nutr, 132(8 Suppl): p. 2430S-2434S (2002). Amplicons prepared from control (vehicle-treated) MCF7 cells were labeled with Cy5 and the amplicons prepared from drug-treated cells were labeled with Cy3. Labeled DNAs were co-hybridized onto 244K Agilent promoter array. Array hybridization results were normalized with LOWESS and a cutoff of 4 folds was used.
Statistics. ELISA and MTT results were analyzed by F-test. Significant demethylated loci were confirmed by ANOVA from DMH results. Linear regression was used to deduce the global methylation states before and after the demethylation agent treatment.

[5] = test system: EGFP expression in MCF7 cells; assay: GFP ELISA of EGFP expression in the two-component reporter system; type: cell-based
Method: as §1
ELISA. Enzyme-linked immunosorbent assay (ELISA) was performed using the GFP ELISA kit (Cell Biolabs, San Diego, Calif.) according to the manufacture's instruction.

MCF7 cells [6] = test system: MCF7 cells
Method: as §2, §3

SMILES	protein level of EGFP [1]	methylation level of GSTp1 (GSTp1)	inhibition of EGFP expression (DNA demethylation) in library screening [2]	methylation level of Trip10 (Trip10 promoter)	morphological changes, light microscopy (Vis) [2]	EGFP expression levels relative to DMSO control [2]	concentration required to be effective in DNA demethylation in suppressing cancer cell growth (cancer cell growth) [µM]	suppression of MCF7 cell viability (MCF7 cells [3])	global (genome-wide) demethylation ([4]; MCF7 cells, 7.5 μM)	more demethylated loci than after 5-Aza treatment ([4]; out of 244K target loci in Agilent array, significant by ANOVA)	demethylation potency in terms of inhibiting the EGFP expression [5]	suppression of MCF7 cell viability (MCF7 cells [6])
O=S(=O)(c1ccc(Br)cc1)N1CCNCC1 [IM9]	significantly inhibited	–	–	–	–	–	–	–	–	–	–	–
COc1ccc(O)c(C(C)=O)c1 [CI-4-1]	–	decreases the methylation level of both genes, but to a lesser extent; also recorded: significantly reduced the methylation level of GSTp1	high activity	decreases the methylation level of both genes, but to a lesser extent; also recorded: weaker effect in demethylating Trip10 promoter	–	–	–	–	–	–	–	–
CCN(CC)CCNC(=O)c1ccc(N)cc1 [procainamide]	–	significantly reduced the methylation level of GSTp1	–	weaker effect in demethylating Trip10 promoter	did not cause morphological changes	dose-dependent, repressive effects on EGFP expression levels	≥ 50	did not cause morphological changes [light microscopy (Vis)] or suppression of cell viability	–	–	–	–
COc1ccc(S(=O)(=O)N2CCNCC2)cc1OC [IM25]	substantially suppressed	greatest potency in facilitating the demethylation of both Trip10 and GSTp1; also recorded: significantly reduced the methylation level of GSTp1	high activity	greatest potency in facilitating the demethylation of both Trip10 and GSTp1; also recorded: weaker effect in demethylating Trip10 promoter	–	–	–	–	able to cause global demethylation in MCF7 cells	5,506 loci	greater demethylation potency than 5-Aza	–
Nc1ncn([C@H]2C[C@H](O)[C@@H](CO)O2)c(=O)n1 [Compound 5-Aza, 5-aza-2′-deoxycytidine]	–	significantly reduced the methylation level of GSTp1	–	weaker effect in demethylating Trip10 promoter	did not cause morphological changes	dose-dependent, repressive effects on EGFP expression levels	–	–	–	–	–	did not cause morphological changes [light microscopy (Vis)] or suppression of cell viability
